Data from PubChem BioAssay (NCI).
Several values for one entry are separate records, joined by “and”; a condition that tells them apart may be missing. Identical values can stand only once.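 How tested: cells in 96-well plates exposed to compound for 48 hours at five concentrations. Abbreviation: GI50, concentration required for 50% inhibition of growth. Definition used: TGI = concentration required for complete inhibition of growth.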

Tested on: MDA-MB-468 breast
Experiment: NCI tumour cell line growth inhibition, 48 h

Compound	GI50	TGI
COc1cc2nc(Nc3cccc(Cl)c3)nc(N)c2cc1OC	4370 nM	17300 nM
C[C@@H]1C[C@H](N)C[C@H](c2ccncc2NC(=O)c2ccc(F)c(-c3c(F)cccc3F)n2)C1	4160 nM and 2910 nM	18300 nM and > 10000 nM
CC(=O)O.CN1[CH-]N(Cc2ccc(C#N)cc2)c2ccccc21.[Ag+]	12800 nM	28500 nM
COc1ccc(Nc2nc(NCCNc3ccnc4cc(Cl)ccc34)nc(N3CCOCC3)n2)cc1	1620 nM	4030 nM
Cc1ccc(CNc2ccc3nc(CCC4CCCCC4)[nH]c3c2)cc1	1520 nM	3350 nM
COc1cc(CCC[P+](c2ccccc2)(c2ccccc2)c2ccccc2)c(OC)c2c1OCO2	292 nM	950 nM
CCC(CC)n1cnc2c(-c3cnc(N)cn3)nc(N3CC4CCC(C3)O4)nc21	189 nM	2810 nM
COc1ccc(-c2ncnc3c2ncn3CC#CCCl)cc1	2370 nM	7290 nM
Cc1c(CN2CCN(C(=O)[C@H](C)O)CC2)sc2c(N3CCOCC3)nc(-c3cnc(N)nc3)nc12	124 nM and 79.3 nM	1140 nM and 456 nM
Cc1cc2c(F)c(Oc3ncnc(Nc4ccc(N5C[C@@H](C)N[C@@H](C)C5)cc4)c3C#N)cc(F)c2[nH]1	2050 nM	4750 nM
CCCc1nn(C)c2c(=O)[nH]c(-c3cc(S(=O)(=O)N4CCN(C)CC4)ccc3OCC)nc12	35000 nM	> 100000 nM
Fc1cccc(COc2ccc(Nc3ncnc4onc(-c5ccccc5)c34)cc2)c1	116 nM	2160 nM
CC1(C)N=C(N)N=C(N)N1c1ccc(CNC(=O)Nc2ccc(S(=O)(=O)F)c(Cl)c2)c(Cl)c1	689 nM	> 100000 nM
COc1ccc(C(C)=C(c2ccc(OCCN3CCCCCC3)cc2)c2ccc(OCCN3CCCCCC3)cc2)cc1	806 nM	3050 nM
O=C1c2c(c(=O)[nH]c3ccccc23)[C@H](c2ccccc2)[C@@H]2CCCN12	2920 nM	14300 nM
COc1ccc2c(c1)c(-c1nc(-c3cn(C)c4ccncc34)cs1)cn2C	1620 nM	3200 nM
NC(=S)N/N=C/c1ccc(OC(=O)COc2cc(Cl)c(Cl)cc2Cl)cn1	2410 nM	8710 nM
COc1cc2nc(N3CCCN(C)CC3)nc(NC3CCN(Cc4ccccc4)CC3)c2cc1OC	1500 nM	3190 nM
CC1=C([Te]c2ccccc2)C(=O)c2ccccc2C1=O	442 nM	2120 nM

Compound	GI50	TGI
Nc1ncc(-c2ccc3ncnc(Nc4cccc(Cl)c4)c3c2)cn1	56.5 nM	378 nM
COC(=O)/C=C1/SC(=Nc2cccc(Cl)c2)N(CCc2c[nH]c3ccc(O)cc23)C1=O	1990 nM	4400 nM
Cc1ccc2c(C(C[N+](=O)[O-])c3ccccc3)c(-c3ccccc3)[nH]c2c1 (centres undefined)	12700 nM	> 95000 nM
Cn1ncc(Cl)c1-c1cc(C(=O)N[C@H](CN)Cc2cccc(F)c2)sc1Cl	38.7 nM and 92 nM	582 nM and 1390 nM
COc1cnc2c(c1)C(=O)c1c-2n(CCCN2CCCC2)c(=O)c2cc([N+](=O)[O-])ccc12	27.1 nM	1030 nM
C=C(C)[C@@H]1CC[C@]2(CO)CC[C@]3(C)[C@H](CC[C@@H]4[C@@]5(C)CCCNC(C)(C)[C@@H]5CC[C@]43C)[C@@H]12	1660 nM	3380 nM
CN(C)c1ccc(/C=N/NC(N)=S)nc1	2210 nM	8410 nM
CC1COc2c(N3CCN(C)CC3)c(F)cc3c(=O)c(C(=O)N/N=C/c4cc[nH]c4)cn1c23 (centres undefined)	412 nM	1730 nM
CN1C(=O)CCC(N2C(=O)c3cccc(NCCOCCOCCNC(=O)c4cc5c(o4)C(=O)c4ccccc4C5=O)c3C2=O)C1=O (centres undefined)	1760 nM	5040 nM
Cc1c(Cn2c(C)nc3c(C(=O)O)cc(N4CCOCC4)cc32)cccc1C(F)(F)F	26700 nM	> 100000 nM
C(=N\Nc1ncc(-c2cc3cc4c(cc3o2)OCO4)s1)/c1ccco1	2140 nM	7140 nM
COc1ccc(Br)cc1NC(=O)Nc1cccc2c1ccn2Cc1ccnc(N)c1	2850 nM and 4540 nM	12000 nM and > 10000 nM
CCN1CCN(CCNc2nccc(-c3c(-c4ccc(F)c(O)c4)nc4occn34)n2)S1(=O)=O	4530 nM	> 100000 nM
COC[C@H](NC(=O)c1cnc(C)s1)C(=O)N[C@@H](COC)C(=O)N[C@@H](Cc1ccccc1)C(=O)[C@@]1(C)CO1	14800 nM	38100 nM
COc1cc(-c2nn(-c3cccc(NC(=O)Nc4ccc(Cl)c(C(F)(F)F)c4)c3)cc2-c2ccncc2)ccc1Cl	833 nM	4420 nM
O=S(=O)(N=C1C(Cl)=C(Cl)C(=NS(=O)(=O)c2ccccc2)C(Cl)=C1Cl)c1ccccc1	15100 nM	35900 nM
CCOC(=O)C(=Cc1ccc(C#N)cc1)C(=O)OCC	1980 nM	3840 nM
CCOC(=O)c1[nH]c2cc(Cl)ccc2c1[C@@H](C(=O)NC(C)(C)C)N(CC)C(=O)CCCCC#Cc1cccc2c1CN(C1CCC(=O)NC1=O)C2=O (some centres undefined)	< 10 nM	< 14.2 nM
